From publication PMC6383986, “Fragment-Based Covalent Ligand Screening Enables Rapid Discovery of Inhibitors for the RBR E3 Ubiquitin Ligase HOIP” (Journal of the American Chemical Society, 2019)

Molecular target: T1, HOIP RBR R1032A mutant (Homo sapiens, UniProt Q96EP0, R1032A)
T1 construct: 697-1072; made in house; host or cells: E. coli BL21-GOLD(DE3)
Test: Protein LC-MS library screen, covalent labeling
Assay type: binding
Conditions: 20 μM compound, 2 μM protein, 24 h incubation
Description: 3.1 Experimental procedures
Acquisition of mass spectrometry data was carried out using positive electrospray ionisation (ESI) on an Agilent 6224 TOF LC-MS system equipped with a Diode Array Detector (DAD), a Wellplate sampler (held at 10 °C) and an Agilent PLRP-S reverse phase column (50 mm, 1 mm diameter, 5 µm particle size) held at 70 °C. The following mobile phases were used for the LC: Mobile phase A (MP A) = 0.2% Formic acid in water, v/v; Mobile phase B (MP B) = 0.2% Formic acid in MeCN, v/v. The following LC method was employed: 0-0.5 min (10→30% B in A, v/v), 0.5-5 min (30→55% […]
mL/min. Injection volume: 10 µL. The run length was 8 min, and equilibration time 1 min after each sample. […] Between 0.5 and 6 min the TOF mass spectrometer recorded 1 spectrum per second with a scan range between 700 and 2200 AMU. […]
thawed individually and analyzed by protein mass spectrometry as described above. The total ion counts (TICs) detected for unlabelled HOIP and labelled HOIP-(5) conjugate within a peak elution range of 10 seconds were used to calculate the ratio of labelled HOIP RBR over total HOIP RBR content for each sample. The averaged data from 3 independent experiments were analyzed according to a two-step model of reversible ligand binding followed by irreversible covalent […]

T1 sequence (Q96EP0 697-1072 R1032A): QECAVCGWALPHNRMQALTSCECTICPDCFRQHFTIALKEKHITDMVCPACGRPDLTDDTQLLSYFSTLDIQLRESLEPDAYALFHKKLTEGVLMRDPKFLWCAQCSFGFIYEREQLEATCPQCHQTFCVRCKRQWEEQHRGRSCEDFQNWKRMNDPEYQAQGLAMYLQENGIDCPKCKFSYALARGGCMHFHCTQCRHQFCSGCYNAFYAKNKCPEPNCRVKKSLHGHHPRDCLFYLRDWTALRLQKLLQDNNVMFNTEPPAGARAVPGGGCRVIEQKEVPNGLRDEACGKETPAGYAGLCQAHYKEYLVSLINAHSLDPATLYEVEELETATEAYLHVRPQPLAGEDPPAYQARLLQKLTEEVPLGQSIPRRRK

labeling of HOIP RBR R1032A: > 85%
SMILES: COC(=O)/C=C/CNC(=O)c1cc2c([nH]c1=O)CCC2 [Compound 5]
